Converted amounts (≈) assume the structure as drawn. Where a name gives a salt, the structure may show the parent alone. Read-outs that look alike come from different tables or passages of the source.
Tests used:
Assay type in all cases: cell-based
[1] = tested on: Enterobacter cloacae P99-; assay: microbe, parasite or virus in culture
From the text: (§1) The pharmaceutically acceptable carbapenem compounds of the present invention are useful antibacterial agents having a broad spectrum of activity in vitro against standard laboratory microorganisms, both Gram-negative and Gram-positive, which are used to screen for activity against pathogenic bacteria. The antibacterial spectrum and potency of a particular compound may be determined in a standard test system. In particular the carbapenems of the present invention show good stability to beta-lactamases and in general particularly good pharmacokinetics, especially as regards half life. In general compounds show significant improvement over imipenem.
(§2) The following results were obtained for representative compounds on a standard in vitro test system using Diagnostic Sensitivity Test. The antibacterial activity is described in terms of the minimum inhibitory concentration (MIC) determined by the agar-dilution technique with an inoculum size of 10^4 CFU/spot.

E. coli DCO = assay: MIC by agar-dilution technique, Diagnostic Sensitivity Test; details: Escherichia coli, inoculum 10^4 CFU/spot
From the text: as §1, §2

B. fragilis AMP-R = assay: as above; details: Bacteroides fragilis, inoculum 10^4 CFU/spot
From the text: as §1, §2

S. aureus Oxford = assay: as above; details: Staphylococcus aureus, inoculum 10^4 CFU/spot
From the text: as §1, §2

P. morganii I + 001 = assay: as above; details: Morganella morganii
From the text: as §1, §2

B. fragilis AMP-S = assay: as above; details: Bacteroides fragilis, inoculum 10^4 CFU/spot
From the text: as §1, §2

[2] = tested on: Enterobacter cloacae P99+; assay: as above
From the text: as §1, §2

D Morganii DR 062 = assay: as above
From the text: as §1, §2

[3] = D Morganii DR 062, agar-dilution, inoculum 10^4 CFU/spot, read-out: MIC
[4] = P. morganii I + 001, agar-dilution, inoculum 10^4 CFU/spot, read-out: MIC

Question: Which results are given for `COc1ccc(NC(=O)[C@@H]2C[C@H](SC3=C(C(=O)O)N4C(=O)[C@H]([C@@H](C)O)[C@H]4[C@H]3C)CN2)c(C(=O)O)c1` [Example 31, (1R,5S,6S,8R,2'S,4'S)-2-(2-(2-Carboxy-4-methoxyphenylcarbamoylpyrrolidin-4-ylthiol)-6-(1-hydroxyethyl)-1-methylcarbapenem-3-carboxylic acid, dipotassium salt]?
Answer: MIC [1]: 0.03 µg/mL; MIC (E. coli DCO): 0.02 µg/mL; MIC (B. fragilis AMP-R): 0.25 µg/mL; MIC (S. aureus Oxford): 0.13 µg/mL; MIC (P. morganii I + 001): 0.03 µg/mL; MIC (B. fragilis AMP-S): 0.25 µg/mL; MIC [2]: 1 µg/mL; MIC (D Morganii DR 062; [3]): 0.06 µg/mL

Question: With `C[C@@H](O)[C@H]1C(=O)N2C(C(=O)O)=C(S[C@@H]3CN[C@H](C(=O)Nc4cc(C(=O)O)ccc4O)C3)[C@H](C)[C@H]12` [Example 2, (1R,5S,6S,8R,2'S,4'S)-2-(2-(5-Carboxy-2-hydroxyphenylcarbamoyl)pyrrolidin-4-ylthio)-6-(1-hydroxyethyl)-1-methylcarbapenem-3-carboxylic acid] as the compound, how does the MIC [1] read?
Answer: 0.01 µg/mL (≈ 0.0203 µM)

Question: And the MIC (E. coli DCO)?
Answer: 0.03 µg/mL (≈ 0.061 µM)

Question: What about the MIC (S. aureus Oxford) of the same compound?
Answer: 0.13 µg/mL (≈ 0.264 µM)

Question: And the MIC (P. morganii I + 001; [4])?
Answer: 0.06 µg/mL

Question: And the MIC (B. fragilis AMP-S)?
Answer: 0.25 µg/mL (≈ 0.509 µM)

Question: What about the MIC [2] of the same compound?
Answer: 1 µg/mL (≈ 2.03 µM)

Question: And the MIC (D Morganii DR 062; [3])?
Answer: 0.06 µg/mL (≈ 0.122 µM)

Question: How did the MIC [1] turn out when `CO/N=C(\C(=O)N[C@@H]1C(=O)N2C(C(=O)O)=C(CSc3nc(=O)c(=O)[nH]n3C)CS[C@H]12)c1csc(N)n1` [ceftriaxone, reference compound] was run?
Answer: 0.06 µg/mL (≈ 0.108 µM)

Question: And the MIC (E. coli DCO)?
Answer: 0.03 µg/mL (≈ 0.0541 µM)

Question: What about the MIC (B. fragilis AMP-R) of the same compound?
Answer: > 128 µg/mL

Question: And the MIC (S. aureus Oxford)?
Answer: 2 µg/mL (≈ 3.61 µM)

Question: And the MIC (P. morganii I + 001; [4])?
Answer: 0.01 µg/mL

Question: And the MIC (B. fragilis AMP-S)?
Answer: 2 µg/mL (≈ 3.61 µM)

Question: And the MIC [2]?
Answer: 32 µg/mL (≈ 57.7 µM)

Question: And the MIC (D Morganii DR 062; [3])?
Answer: 1 µg/mL (≈ 1.8 µM)

Question: Which results are given for `C[C@@H](O)[C@H]1C(=O)N2C(C(=O)O)=C(S[C@@H]3CN[C@H](C(=O)Nc4cccc(C(=O)O)c4C(=O)O)C3)[C@H](C)[C@H]12` [Example 4, (1R,5S,6S,8R,2'S,4'S)-2-(2-(2,3-Dicarboxyphenylcarbamoyl)pyrrolidin-4-ylthio)-6-(1-hydroxyethyl)-1-methylcarbapenem-3-carboxylic acid]?
Answer: MIC [1]: 0.01 µg/mL (≈ 0.0192 µM); MIC (E. coli DCO): 0.02 µg/mL (≈ 0.0385 µM); MIC (B. fragilis AMP-R): 0.5 µg/mL (≈ 0.962 µM); MIC (S. aureus Oxford): 0.25 µg/mL (≈ 0.481 µM); MIC (P. morganii I + 001): 0.03 µg/mL (≈ 0.0577 µM); MIC (B. fragilis AMP-S): 0.13 µg/mL (≈ 0.25 µM); MIC [2]: 1 µg/mL (≈ 1.92 µM); MIC (D Morganii DR 062): 0.03 µg/mL (≈ 0.0577 µM)

Question: `C[C@@H](O)[C@H]1C(=O)N2C(C(=O)O)=C(S[C@@H]3CN[C@H](C(=O)Nc4ccccc4C(=O)O)C3)[C@H](C)[C@H]12` [Example 5, (1R,5S,6S,8R,2'S,4'S)-2-(2-(2-Carboxyphenylcarbamoyl)pyrrolidin-4-ylthio)-6-(1-hydroxyethyl)-1-methylcarbapenem-3-carboxylic acid] was tested. Which MIC [1] did it give?
Answer: 0.06 µg/mL (≈ 0.126 µM)

Question: And the MIC (E. coli DCO)?
Answer: 0.03 µg/mL (≈ 0.0631 µM)

Question: What about the MIC (B. fragilis AMP-R) of the same compound?
Answer: 0.25 µg/mL (≈ 0.526 µM)

Question: What about the MIC (S. aureus Oxford) of the same compound?
Answer: 0.06 µg/mL (≈ 0.126 µM)

Question: And the MIC (P. morganii I + 001)?
Answer: 0.03 µg/mL (≈ 0.0631 µM)

Question: And the MIC (B. fragilis AMP-S)?
Answer: 0.25 µg/mL (≈ 0.526 µM)

Question: What about the MIC [2] of the same compound?
Answer: 1 µg/mL (≈ 2.1 µM)

Question: And the MIC (D Morganii DR 062)?
Answer: 0.03 µg/mL (≈ 0.0631 µM)

Question: How did the MIC [1] turn out when `C[C@@H](O)[C@H]1C(=O)N2C(C(=O)O)=C(S[C@@H]3CN[C@H](C(=O)Nc4ccc(C(=O)O)cc4O)C3)[C@H](C)[C@H]12` [Example 1, (1R,5S,6S,8R,2'S,4'S)-2-(2-(4-Carboxy-2-hydroxyphenylcarbamoyl)pyrrolidin-4-ylthio)-6-(1-hydroxyethyl)-1-methylcarbapenem-3-carboxylic acid] was run?
Answer: 0.01 µg/mL (≈ 0.0203 µM)

Question: And the MIC (E. coli DCO)?
Answer: 0.01 µg/mL (≈ 0.0203 µM)

Question: What about the MIC (B. fragilis AMP-R) of the same compound?
Answer: 0.5 µg/mL (≈ 1.02 µM)

Question: And the MIC (S. aureus Oxford)?
Answer: 0.13 µg/mL (≈ 0.264 µM)

Question: And the MIC (P. morganii I + 001; [4])?
Answer: 0.02 µg/mL

Question: What about the MIC (B. fragilis AMP-S) of the same compound?
Answer: 0.25 µg/mL (≈ 0.509 µM)

Question: What about the MIC [2] of the same compound?
Answer: 0.25 µg/mL (≈ 0.509 µM)

Question: And the MIC (D Morganii DR 062; [3])?
Answer: 0.02 µg/mL (≈ 0.0407 µM)

Question: How did the MIC [1] turn out when `C[C@@H](O)[C@H]1C(=O)N2C(C(=O)O)=C(S[C@@H]3CN[C@H](C(=O)Nc4ccc(C(=O)O)cc4C(=O)O)C3)[C@H](C)[C@H]12` [Example 13, (1R,5S,6S,8R,2'S,4'S)-2-(2-(2,4-Dicarboxyphenylcarbamoyl)pyrrolidin-4-ylthio)-6-(1-hydroxyethyl)-1-methylcarbapenem-3-carboxylic acid] was run?
Answer: 0.03 µg/mL (≈ 0.0577 µM)

Question: What about the MIC (E. coli DCO) of the same compound?
Answer: 0.02 µg/mL (≈ 0.0385 µM)

Question: What about the MIC (B. fragilis AMP-R) of the same compound?
Answer: 0.5 µg/mL (≈ 0.962 µM)

Question: And the MIC (S. aureus Oxford)?
Answer: 0.25 µg/mL (≈ 0.481 µM)

Question: And the MIC (P. morganii I + 001; [4])?
Answer: 0.01 µg/mL

Question: What about the MIC (B. fragilis AMP-S) of the same compound?
Answer: 0.13 µg/mL (≈ 0.25 µM)

Question: What about the MIC [2] of the same compound?
Answer: 2 µg/mL (≈ 3.85 µM)

Question: What about the MIC (D Morganii DR 062; [3]) of the same compound?
Answer: 0.02 µg/mL (≈ 0.0385 µM)
